{
  "source": "paper PMC7139731",
  "about": "“Synthesis, Anticancer Evaluation and Structure-Activity Analysis of Novel (E)- 5-(2-Arylvinyl)-1,3,4-oxadiazol-2-yl)benzenesulfonamides” (International Journal of Molecular Sciences, 2020)",
  "key": {"[1]": {"test_system": "HaCaT noncancerous keratinocyte cell line", "assay": "MTT cell viability assay, 72 h, HaCaT", "type": "cell-based", "details": "for IC50: Homo sapiens, HaCaT, MTT assay, 72 h incubation, mean ± SD", "experimental": "(§1) Compounds 7–36 and 47–54 were tested regarding their effect on growth of three human cancer cell lines: colon cancer HCT-116, breast cancer MCF-7 and cervical cancer HeLa, as well as on noncancerous keratinocyte cell line HaCaT. Cell viability was measured with MTT assay after 72 h of incubation with tested compound in five concentration 1–100 μM. The MTT test enables us to quantify the living cells by measuring the activity of mitochondrial enzymes, enables reducing tetrazolium dye MTT to purple formazan. In this manner, IC50—molar concentration [µM] that inhibits 50% net cell growth—was determined (Table 1 and Table 2).\n(§2) All chemicals, if not stated otherwise, were obtained from Sigma-Aldrich (St. Louis, MO, USA). The MCF-7, HeLa and HaCaT cell lines were purchased from Cell Lines Services (Eppelheim, Germany), the HCT-116 cell line were obtained from ATCC (ATCC-No: CCL-247). Cells were cultured in Dulbecco’s modified Eagle’s medium (DMEM) supplemented with 10% fetal bovine serum, 2 mM glutamine, 100 units/mL penicillin, and 100 μg/mL streptomycin. Cultures were maintained in a humidified atmosphere with 5% CO2 at 37 °C in an incubator (HeraCell, Heraeus, Langenselbold, Germany). Cell viability was determined using the MTT [3-(4,5-dimethylthiazol-2-yl)-2,5-diphenyl-tetrazolium bromide] assay. Stock solutions of the studied compounds were obtained in 100% DMSO. […] Cells were seeded in 96-well plates at a density of 5 × 10^3 cells/well and treated for 72 h with the examined compounds in the concentration range 1–100 μM (1, 10, 25, 50 and 100 μM). Following treatment, MTT (0.5 mg/mL) was added to the medium and cells were further incubated for 2 h at 37 °C. Cells were lysed with DMSO and the absorbance of the formazan solution was measured at 550 nm with a plate reader Victor 1420 multilabel counter, (PerkinElmer, Inc. Waltham, MA USA). […] The experiment was performed in triplicate. Values are expressed as the mean ± SD of at least three independent experiments"}, "[2]": {"test_system": "MCF-7 cells (breast cancer)", "assay": "MTT cell viability assay, 72 h, MCF-7", "type": "cell-based, human", "details": "for IC50: Homo sapiens, MCF7, 72 h, MTT assay, 72 h incubation, mean ± SD", "experimental": "as §1, §2"}, "[3]": {"test_system": "HeLa cells (cervical cancer)", "assay": "MTT cell viability assay, 72 h, HeLa", "type": "cell-based, human", "details": "for IC50: Homo sapiens, HeLa, 72 h, MTT assay, 72 h incubation, mean ± SD", "experimental": "as §1, §2"}, "[4]": {"test_system": "HCT-116 cells (colon cancer)", "assay": "MTT cell viability assay, 72 h, HCT-116", "type": "cell-based, human", "details": "for IC50: MTT assay, 72 h incubation, mean ± SD", "experimental": "as §1, §2"}, "[5]": {"test_system": "HaCaT noncancerous keratinocyte cell line", "set-up": "method as in PMID 28364658", "details": "MTT assay, 72 h incubation; compounds marked [18] ref 18; cited from earlier work"}},
  "note": "Values joined by “and” are separate entries in the source; they are usually repeats but may differ in a detail not shown here. Identical values can stand only once. Like-named read-outs stand apart in the source and are kept apart here.",
  "data": [
    {"smiles": "NS(=O)(=O)c1cc(-c2nnc(/C=C/c3ccccn3)o2)c(Cl)cc1SCc1ccccc1", "note": "[Compound 28, (E)-2-(Benzylthio)-4-chloro-5-(5-(2-(pyridin-2-yl)vinyl)-1,3,4-oxadiazol-2-yl)benzenesulfonamide]", "values": [
      {"measurement": "IC50", "setting": "[1]", "result": "140 ± 10", "unit": "µM"},
      {"measurement": "IC50", "setting": "[2]", "result": "115 ± 3", "unit": "µM"},
      {"measurement": "melting point", "result": "254 to 257 °C (dec.)"},
      {"measurement": "IC50", "setting": "[3]", "result": "130 ± 6", "unit": "µM"},
      {"measurement": "IC50", "setting": "[4]; Homo sapiens, HCT-116, 72 h", "result": "25 ± 1", "unit": "µM"}
    ]},
    {"smiles": "NS(=O)(=O)c1cc(-c2nnc(/C=C/c3ccccc3)o2)c(Cl)cc1SCc1ccccc1", "note": "[Compound 8]", "values": [
      {"measurement": "activity against HaCaT compared with cancer lines", "setting": "[1]; in words", "result": "at the same level as against cancer lines"},
      {"measurement": "IC50", "setting": "[5]", "result": "20 ± 1", "unit": "µM"}
    ]},
    {"smiles": "NS(=O)(=O)c1cc(-c2nnc(/C=C/c3ccc([N+](=O)[O-])o3)o2)c(Cl)cc1SCc1ccccc1", "note": "[Compound 35, (E)-2-(Benzylthio)-4-chloro-5-(5-(2-(5-nitrofuran-2-yl)vinyl)-1,3,4-oxadiazol-2-yl)benzenesulfonamide]", "values": [
      {"measurement": "IC50", "setting": "[1]", "result": "87 ± 4", "unit": "µM"},
      {"measurement": "selectivity index SI (IC50 for HaCaT cell line/IC50 for cancerous cell line)", "setting": "[1]; cancer line not given, active derivatives (IC50 for cancer line ≤ 25 µM)", "result": 22},
      {"measurement": "IC50", "setting": "[2]", "result": "150 ± 8", "unit": "µM"},
      {"measurement": "IC50", "setting": "[3]", "result": "69 ± 3", "unit": "µM"},
      {"measurement": "IC50", "setting": "[4]; Homo sapiens, HCT-116, 72 h", "result": 4, "unit": "µM"},
      {"measurement": "IC50", "setting": "[4]", "result": "4.1 ± 0.2", "unit": "µM"},
      {"measurement": "times more active against HCT-116 than HaCaT", "setting": "[4]; selectivity HCT-116 vs HaCaT", "result": 22, "unit": "times"},
      {"measurement": "times more active against HCT-116 than HeLa", "setting": "[4]; selectivity HCT-116 vs HeLa", "result": 17, "unit": "times"},
      {"measurement": "times more active against HCT-116 than MCF-7", "setting": "[4]; selectivity HCT-116 vs MCF-7", "result": 37, "unit": "times"}
    ]},
    {"smiles": "NS(=O)(=O)c1cc(-c2nnc(/C=C/c3cccc(Cl)c3)o2)c(Cl)cc1Cl", "note": "[Compound 9, (E)-2,4-Dichloro-5-(5-(3-chlorostyryl)-1,3,4-oxadiazol-2-yl)benzenesulfonamide]", "values": [
      {"measurement": "IC50", "setting": "[1]", "result": "98 ± 2", "unit": "µM"},
      {"measurement": "IC50", "setting": "[2]", "result": "150 ± 10", "unit": "µM"},
      {"measurement": "IC50", "setting": "[3]", "result": "19 ± 1", "unit": "µM"},
      {"measurement": "IC50", "setting": "[4]; Homo sapiens, HCT-116, 72 h", "result": "24 ± 1", "unit": "µM"}
    ]},
    {"smiles": "NS(=O)(=O)c1cc(-c2nnc(/C=C/c3c(Cl)cccc3Cl)o2)c(Cl)cc1SCc1ccccc1", "note": "[Compound 14]", "values": [
      {"measurement": "IC50", "setting": "[5]", "result": "160 ± 2", "unit": "µM"}
    ]},
    {"smiles": "NS(=O)(=O)c1cc(-c2nnc(/C=C/c3cccs3)o2)c(Cl)cc1SCc1ccccc1", "note": "[Compound 30, (E)-2-(Benzylthio)-4-chloro-5-(5-(2-(thiophen-2-yl)vinyl)-1,3,4-oxadiazol-2-yl)benzenesulfonamide]", "values": [
      {"measurement": "IC50", "setting": "[1]", "result": "85 ± 4", "unit": "µM"},
      {"measurement": "IC50", "setting": "[2]", "result": "66 ± 2", "unit": "µM"},
      {"measurement": "IC50", "setting": "[3]", "result": "87 ± 3", "unit": "µM"},
      {"measurement": "IC50", "setting": "[4]; Homo sapiens, HCT-116, 72 h", "result": "32 ± 2", "unit": "µM"}
    ]},
    {"smiles": "NS(=O)(=O)c1cc(-c2nnc(/C=C/c3ccco3)o2)c(Cl)cc1SCc1ccccc1", "note": "[Compound 34, (E)-2-(Benzylthio)-4-chloro-5-(5-(2-(furan-2-yl)vinyl)-1,3,4-oxadiazol-2-yl)benzenesulfonamide]", "values": [
      {"measurement": "IC50", "setting": "[1]", "result": "91 ± 3", "unit": "µM"},
      {"measurement": "IC50", "setting": "[2]", "result": "62 ± 1", "unit": "µM"},
      {"measurement": "IC50", "setting": "[3]", "result": "85 ± 3", "unit": "µM"},
      {"measurement": "IC50", "setting": "[4]; Homo sapiens, HCT-116, 72 h", "result": "27.8 ± 0.3", "unit": "µM"}
    ]},
    {"smiles": "NS(=O)(=O)c1cc(-c2nnc(/C=C/c3ccc(O)cc3)o2)c(Cl)cc1Cl", "note": "[Compound 17, (E)-2,4-Dichloro-5-(5-(4-hydroxystyryl)-1,3,4-oxadiazol-2-yl)benzenesulfonamide]", "values": [
      {"measurement": "IC50", "setting": "[1]", "result": "100 ± 5", "unit": "µM"},
      {"measurement": "IC50", "setting": "[2]", "result": "73 ± 3", "unit": "µM"},
      {"measurement": "IC50", "setting": "[3]", "result": "99 ± 1", "unit": "µM"},
      {"measurement": "IC50", "setting": "[4]; Homo sapiens, HCT-116, 72 h", "result": "49 ± 1", "unit": "µM"}
    ]},
    {"smiles": "NS(=O)(=O)c1cc(-c2nnc(/C=C/c3ccc([N+](=O)[O-])s3)o2)c(Cl)cc1Cl", "note": "[Compound 31, (E)-2,4-Dichloro-5-(5-(2-(5-nitrothiophen-2-yl)vinyl)-1,3,4-oxadiazol-2-yl)benzenesulfonamide]", "values": [
      {"measurement": "IC50", "setting": "[1]", "result": "8.1 ± 0.5", "unit": "µM"},
      {"measurement": "increase of activity towards MCF-7 on addition of nitro group (31 vs 29)", "setting": "[2]; compared with compound 29", "result": 43, "unit": "times"},
      {"measurement": "increase of activity towards HeLa on addition of nitro group (31 vs 29)", "setting": "[3]; compared with compound 29", "result": 54, "unit": "times"},
      {"measurement": "IC50", "setting": "[4]; Homo sapiens, HCT-116, 72 h", "result": "0.5 to 4.5", "unit": "µM"},
      {"measurement": "IC50", "setting": "[4]", "result": "0.5 µM and 0.52 µM"},
      {"measurement": "increase of activity towards HCT-116 on addition of nitro group (31 vs 29)", "setting": "[4]; compared with compound 29", "result": "over 200 times"}
    ]},
    {"smiles": "NS(=O)(=O)c1cc(-c2nnc(/C=C/c3ccncc3)o2)c(Cl)cc1SCc1ccccc1", "note": "[Compound 24, (E)-2-(Benzylthio)-4-chloro-5-(5-(2-(pyridin-4-yl)vinyl)-1,3,4-oxadiazol-2-yl)benzenesulfonamide]", "values": [
      {"measurement": "IC50", "setting": "[1]", "result": "150 ± 8", "unit": "µM"},
      {"measurement": "IC50", "setting": "[2]", "result": "225 ± 11", "unit": "µM"},
      {"measurement": "IC50", "setting": "[3]", "result": "135 ± 8", "unit": "µM"},
      {"measurement": "IC50", "setting": "[4]; Homo sapiens, HCT-116, 72 h", "result": "31 ± 1", "unit": "µM"}
    ]},
    {"smiles": "NS(=O)(=O)c1cc(-c2nnc(/C=C/c3ccc(Br)cc3)o2)c(Cl)cc1SCc1ccccc1", "note": "[Compound 16]", "values": [
      {"measurement": "IC50", "setting": "[5]", "result": "31 ± 1", "unit": "µM"}
    ]}
  ]
}
